Experimental data from patent publication US20260217716A1, “ANDROGEN RECEPTOR MODULATORS AND METHODS FOR THEIR USE” (Capulus Therapeutics, LLC, priority 2022, published 2026).
Positions count from the first letter of the chain named. Where two headings read alike, the source gives them in different places.

What was measured:
human AR = target: T1, human AR (Homo sapiens, UniProt P10275); experiment: Indigo Biosciences AR reporter cell assay (AR inhibition, antagonist mode); format: cell-based; conditions: for IC50: luciferase reporter cells, 24 hr, EC80 of agonist 5α-dihydro-11-keto testosterone, read-out: AR Inhibition Indigo Cell Based: Avg IC50
T1 construct: Reporter Cells used in these assays expressed a native receptor (AR)
T1 sequence (P10275 1-920): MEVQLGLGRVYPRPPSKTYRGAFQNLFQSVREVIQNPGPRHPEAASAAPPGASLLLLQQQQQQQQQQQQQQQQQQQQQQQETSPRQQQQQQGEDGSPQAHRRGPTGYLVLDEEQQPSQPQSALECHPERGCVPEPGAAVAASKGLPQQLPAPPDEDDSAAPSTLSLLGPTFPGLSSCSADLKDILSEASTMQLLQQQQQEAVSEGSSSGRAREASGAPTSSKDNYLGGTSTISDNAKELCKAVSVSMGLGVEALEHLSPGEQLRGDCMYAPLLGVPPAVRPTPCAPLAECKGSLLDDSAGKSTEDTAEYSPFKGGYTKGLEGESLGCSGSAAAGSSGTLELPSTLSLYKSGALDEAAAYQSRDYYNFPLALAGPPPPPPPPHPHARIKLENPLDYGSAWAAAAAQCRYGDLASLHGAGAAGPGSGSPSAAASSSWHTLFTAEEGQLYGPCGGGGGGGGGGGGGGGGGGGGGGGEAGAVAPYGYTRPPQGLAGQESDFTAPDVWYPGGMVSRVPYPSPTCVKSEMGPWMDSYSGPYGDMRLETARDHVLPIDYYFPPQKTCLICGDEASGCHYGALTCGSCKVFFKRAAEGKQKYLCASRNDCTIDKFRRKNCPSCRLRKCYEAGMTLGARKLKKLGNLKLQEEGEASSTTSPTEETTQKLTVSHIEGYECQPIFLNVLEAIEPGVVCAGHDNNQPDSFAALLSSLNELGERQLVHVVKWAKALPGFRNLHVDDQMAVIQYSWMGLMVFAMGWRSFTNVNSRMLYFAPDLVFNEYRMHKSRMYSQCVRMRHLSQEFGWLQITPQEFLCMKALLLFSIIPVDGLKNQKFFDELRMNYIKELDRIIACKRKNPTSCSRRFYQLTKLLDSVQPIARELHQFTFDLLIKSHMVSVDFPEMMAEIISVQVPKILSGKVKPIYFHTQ
Protocol: The aim of this study was to evaluate compounds 1-12 and the comparative compounds 1-2 for inhibition activities against human AR. Reporter Cells used in these assays expressed a native receptor (AR). The reporter gene, firefly luciferase, is functionally linked to an upstream receptor-specific genetic response element (GRE). Reporter cells were treated with eight concentrations, starting at 50 μM and following with 3.17-fold dilutions. Single treatment concentration was performed (n=1). Assay performance was validated using the reference antagonist hydroxy flutamide. • Step 1: A suspension of reporter cells was prepared in Cell Recovery Medium (CRM). Reporter cells were first supplemented with 2×-EC80 concentration of the reference agonist, 5α-dihydro-11-keto testosterone, then 100 μl of the Reporter Cell suspension was dispensed into wells of a white 96-well assay plate. • Step 2: Test compound master stocks were diluted in DMSO to generate solutions at ‘500×-concentration’ relative to the final treatment concentration and diluted directly into INDIGO's Compound Screening Medium (CSM; containing charcoal-stripped FBS) to generate ‘2×-concentration’ treatment media. This was diluted into the wells to the final concentration. Assay plates were incubated at 37° C., 5% CO2 and ~70% humidity for 24 hr. • Step 3: Following the incubation period, wells were rinsed once with Live Cell Multiplex (LCM) Buffer, then LCM substrate was added. Following incubation at room temperature for 15 min, LCM substrate was discarded and 100 μL/well of luciferase detection reagent was added. Subsequently, fluorescence was measured to determine the relative number of live cells per assay well. RLU values were quantified after a 10 min incubation period at room temperature to determine nuclear receptor activities.

Human androgen receptors = target: T2, Human androgen receptors (Homo sapiens, UniProt P10275, T878A); experiment: Biochemical AR LBD antagonism (Eurofins AR radioligand binding assay)
T2 construct: Human androgen receptors obtained from human LNCaP cells were used; host or cells: human LNCaP cells
T2 sequence (P10275 1-920 T878A): T1 sequence (P10275 1-920) with T878A
Protocol: Human androgen receptors obtained from human LNCaP cells were used in modified HEPES buffer pH 7.4. A 70 μg‡ aliquot was incubated with 0.5 nM [3H] Methyltrienolone for 20 h at 4° C. Non-specific binding was estimated in the presence of 1 μM testosterone. Receptors were filtered and washed, the filters were then counted to determine [3H] Methyltrienolone specifically bound. Compounds were screened at 10 μM.
Furthermore, as noted earlier, most clinically relevant AR inhibitors target the ligand binding domain (LBD) of the androgen receptor, and these inhibitors can lose efficacy due to point mutations in the LBD. Given that the AR protein contains multiple sub-domains, targeting other domains is an attractive approach for new inhibitors. […] Therefore, the compounds as described herein may be interacting with other subdomains in the AR protein, namely the N-terminal domain.

[1] = Human liver microsome stability; format: in vitro ADME; conditions: 1 μM
Protocol: (§1) Preincubation mixture 2.5 μL Test Cpd. +75 μL Liver microsomes (human or mouse source) @ 3.33 mg/mL+85 µL of 100 mM potassium phosphate buffer (preincubate for 10 min @ 37° C.). Incubation mixture 62 μL of cofactor (2.85 mM)+Remaining incubation mixture (Incubated for 60 min @ 37° C.). Sample preparation 25 μL incubation mixture+200 μL of acetonitrile containing internal standard+Vortex 5 min @ 1200 rpm+Centrifuge 10 min @ 4000 rpm. Supernatant diluted 2-fold with water and injected on LC-MS/MS.

[2] = Mouse liver microsome stability; format: in vitro ADME; conditions: 1 μM
Protocol: as §1

[3] = Table 3, read-out: Biochemical AR LBD Antagonism: Avg IC50
[4] = Table 5, human liver microsomes
[5] = Table 5, mouse liver microsomes
[6] = Table 4, read-out: Biochemical AR LBD Antagonism: Average IC50
[7] = Table 6, human liver microsomes
[8] = Table 6, mouse liver microsomes

IC50 (human AR; Table 1) [nM] | IC50 (Human androgen receptors; [3]) [nM] | Human LM: Rem @ 60 min [1, 4] | Mouse LM: Rem @ 60 min [2, 5] | IC50 (human AR; Table 2) [nM] | times more potent than the racemic mixture (Comparative Compound 1) in the cell-based activity assay (human AR; versus Comparative Compound 1) | times more potent than the S isomer (Comparative Compound 2) in the cell-based activity assay (human AR; versus Comparative Compound 2) | IC50 (Human androgen receptors; [6]) [nM] | Human LM: Rem @ 60 min [1, 7] | Mouse LM: Rem @ 60 min [2, 8] | SMILES
> 501 | > 501 |  |  |  |  |  |  |  |  | C[C@H](Nc1ccc2nnc(C(F)(F)F)n2n1)c1ccc(F)cc1 [Comparative Compound 2, (S)—N-(1-(4-fluorophenyl)ethyl)-3-(trifluoromethyl)-[1,2,4]triazolo[4,3-b]pyridazin-6-amine, reference compound]
< 50 | > 501 | +++ (>60.1: “+++”) | ++ (30.1-60: “++”) | < 50 | ~ 2 times | ~ 150 times | > 501 | +++ (>60.1: “+++”) | ++ (30.1-60: “++”) | C[C@@H](Nc1ccc2nnc(C(F)(F)F)n2n1)c1ccc(F)cc1 [Compound 1, (R)—N-(1-(4-fluorophenyl)ethyl)-3-(trifluoromethyl)-[1,2,4]triazolo[4,3-b]pyridazin-6-amine]
 |  |  |  | < 50 |  |  | > 501 | +++ (>60.1: “+++”) | +++ (>60.1: “+++”) | CC[C@@H](Nc1ccc2nnc(C(F)(F)F)n2n1)c1ccc(F)cc1 [Compound 3, (R)—N-(1-(4-fluorophenyl)propyl)-3-(trifluoromethyl)-[1,2,4]triazolo[4,3-b]pyridazin-6-amine]
 |  |  |  | 51 to 500 |  |  |  | +++ (>60.1: “+++”) | +++ (>60.1: “+++”) | C[C@@H](Nc1ccc2nnc(C(F)(F)F)n2n1)c1ccc(C(F)(F)F)cc1 [Compound 4, (R)-3-(trifluoromethyl)-N-(1-(4-(trifluoromethyl)phenyl)ethyl)-[1,2,4]triazolo[4,3-b]pyridazin-6-amine]
 |  |  |  | 51 to 500 |  |  | 51 to 500 | +++ (>60.1: “+++”) | + (0-30: “+”) | COc1cc(Cl)cc([C@@H](C)Nc2ccc3nnc(C(F)(F)F)n3n2)c1 [Compound 7, (R)—N-(1-(3-chloro-5-methoxyphenyl)ethyl)-3-(trifluoromethyl)-[1,2,4]triazolo[4,3-b]pyridazin-6-amine]
 |  |  |  | 51 to 500 |  |  | > 501 | +++ (>60.1: “+++”) | +++ (>60.1: “+++”) | C[C@@H](Nc1ccc2nnc(C(F)(F)F)n2n1)c1cc(Cl)cc(Cl)c1 [Compound 8, (R)—N-(1-(3,5-dichlorophenyl)ethyl)-3-(trifluoromethyl)-[1,2,4]triazolo[4,3-b]pyridazin-6-amine]
 |  |  |  | > 501 |  |  |  |  |  | C[C@@H](Nc1ccc2nnc(C3CC3)n2n1)c1ccc(F)cc1 [Compound 11, (R)-3-cyclopropyl-N-(1-(4-fluorophenyl)ethyl)-[1,2,4]triazolo[4,3-b]pyridazin-6-amine]

Second part, the molecule before the results:

SMILES | IC50 (human AR; Table 1) [nM] | IC50 (Human androgen receptors; [3]) [nM] | Human LM: Rem @ 60 min [1, 4] | Mouse LM: Rem @ 60 min [2, 5] | IC50 (human AR; Table 2) [nM] | times more potent than the racemic mixture (Comparative Compound 1) in the cell-based activity assay (human AR; versus Comparative Compound 1) | times more potent than the S isomer (Comparative Compound 2) in the cell-based activity assay (human AR; versus Comparative Compound 2) | IC50 (Human androgen receptors; [6]) [nM] | Human LM: Rem @ 60 min [1, 7] | Mouse LM: Rem @ 60 min [2, 8]
CC(Nc1ccc2nnc(C(F)(F)F)n2n1)c1ccc(F)cc1 (racemic) [Comparative Compound 1, (R, S)—N-(1-(4-fluorophenyl)ethyl)-3-(trifluoromethyl)-[1,2,4]triazolo[4,3-b]pyridazin-6-amine, reference compound] | 51 to 500 | > 501 | +++ (>60.1: “+++”) | +++ (>60.1: “+++”) |  |  |  |  |  | 
C[C@@H](Nc1ccc2nnc(C(F)(F)F)n2n1)c1cc(F)cc(F)c1 [Compound 2, (R)—N-(1-(3,5-difluorophenyl)ethyl)-3-(trifluoromethyl)-[1,2,4]triazolo[4,3-b]pyridazin-6-amine] |  |  |  |  | < 50 |  |  | > 501 | +++ (>60.1: “+++”) | +++ (>60.1: “+++”)
C[C@H](c1ccc(F)cc1)N(C)c1ccc2nnc(C(F)(F)F)n2n1 [Compound 5, (R)—N-(1-(4-fluorophenyl)ethyl)-N-methyl-3-(trifluoromethyl)-[1,2,4]triazolo[4,3-b]pyridazin-6-amine] |  |  |  |  | 51 to 500 |  |  | 51 to 500 | +++ (>60.1: “+++”) | + (0-30: “+”)
COc1cc([C@@H](C)Nc2ccc3nnc(C(F)(F)F)n3n2)ccc1F [Compound 6, (R)—N-(1-(4-fluoro-3-methoxyphenyl)ethyl)-3-(trifluoromethyl)-[1,2,4]triazolo[4,3-b]pyridazin-6-amine] |  |  |  |  | 51 to 500 |  |  | > 501 | +++ (>60.1: “+++”) | + (0-30: “+”)
C[C@@H](Nc1ccc2nnc(C(F)(F)F)n2n1)c1ccc(C#N)cc1 [Compound 9, (R)-4-(1-((3-(trifluoromethyl)-[1,2,4]triazolo[4,3-b]pyridazin-6-yl)amino)ethyl)benzonitrile] |  |  |  |  | > 501 |  |  |  |  | 
